According to patent US20090297628A1, “Use of iron in the form of a stone extract as stimulus of the synthesis of collagen by skin fibroblasts” (GATTEFOSSE SAS, priority 2005, published 2009):

Test system: pro-collagen I in normal human fibroblasts
Assay: Pro-collagen I content of normal human fibroblasts cultivated in a monolayer (Elisa on cell lysates)
Format: cell-based
Details: 10 ng/ml, 48 H incubation, p<0.05
Excerpt: The influence of the product on the expression of pro-collagen I is investigated in a model of normal human fibroblasts cultivated in a monolayer. The pro-collagen I is quantified using an Elisa (Enzyme Linked ImmunoSorbent Assay) kit on cell lysates. Furthermore, the proteins contained in the cell lysates are quantified by a spectrocolorimetric method according to the Bradford method. Included in the study is a negative control, consisting of the culture medium, and a positive control, represented by TGF-β (Transforming Growth Factor β) containing 10 ng/ml.
Collagens of types I, II, […], IV and V are synthesized from precursor molecules called “pro-collagen”. […]
The fibroblasts are incubated for 48 hours at 37° C., under humid atmosphere and 5% CO2 in a culture medium alone or in the presence of a reference product or increasing concentrations of active ingredients in the test. After 48 H of incubation of the test product, the type I pro-collagen and the total proteins present in the cell lysates are quantified. The results are obtained as a quantity (ng) of pro-collagen of type I C-Peptide per quantity (μg) of total proteins of the cell layer (means+/−standard deviation, S.D.). The statistical significance (*) of the differences observed between the “control” condition and each “treated” condition is evaluated by a One Way ANOVA on Ranks analysis followed by a Dunn's test (*: p<0.05). […]

Substance: TGF-β
- Increase of the intrafibroblastic content of type I pro-collagen: 25%
